Results: patent US20090036821A1 (priority 2005, published 2009)
Structures can show the parent of a compound that is named as a salt. Where two headings read alike, the source gives them in different places.

Tests used:
[1] = Conductivity of donor solution; type: physicochemical
[2] = for Iontophoretic flux of nicotine versus passive delivery of nicotine base: 500 mM citrate buffer with 50 mM NaCl, current terminated after 4 hours, FIG. 3; for Flux of nicotine after termination of current: current terminated at 4 hrs, 50 mM HEPES, FIG. 6; for Lagtime / Flux: iontophoresis (ITP), donor pH 5.5, 50 mM HEPES; for Flux: steady state when current is present, 0.5 mA/sq.cm; for Flux of nicotine, iontophoresis of salt versus passive permeation of nicotine base / Lagtime during iontophoresis versus passive permeation of nicotine base: iontophoresis at pH 5.5 versus passive base pH 8, FIG. 8
Method: The following methodology was employed in the examples described herein: Dermatomed human skin stored at −80° C. was thawed just prior to use. Each permeation experiment consisted of four replicates. The skin for each replicate was obtained from a different donor so that the variation was randomized. Skin was mounted on Valia-Chien (horizontal) diffusion cells for these in vitro permeation studies, with stratum corneum side facing the donor side. The receptor compartment was filled with pH 7.4 phosphate buffer (50 mM). […] Prior to use, both donor and receptor solutions were degassed by helium sparging. The temperature of the water bath was set to 32° C. Both donor and receptor compartments were continuously stirred. For iontophoresis, silver wire was used as the anode in the donor compartment and silver/silver chloride as cathode in the receptor compartment. A current of 0.5 mA/sq.cm was applied for 4 hours. Samples taken periodically from the receptor compartment were analyzed by HPLC assay. An Xterra RP18 column was used and the detection wavelength was 261 nm. The mobile phase was 85:15 buffer:acetonitrile, pumped at 1 mL/min and retention time was about 3 minutes.
Iontophoretic current was terminated after 4 hours.
Iontophoretic delivery of nicotinium dihydrochloride salt was also studied in 50 mM HEPES buffer, adjusted to pH 5.5 with NaOH.
The flux is calculated at steady state when current is present for the iontophoresis experiments.

[3] = donor solution for iontophoresis, donor pH 5.5, 50 mM HEPES

Molecule	Conductivity [1, 3] [mS/cm]	Lagtime [2] [min]	Flux [2] [mg/cm^2-hr]	further results
CN1CCCC1c1cccnc1 (centres unmarked) [Base, nicotine]	–	–	–	Passive transport of nicotine, pH 8 versus pH 5.5 (non-ionized form at pH 8 compared to monocationic form at pH 5.5): higher at pH 8; Lagtime (passive permeation, donor pH 8): 87 min; Flux (passive permeation, donor pH 8, 1% nicotine, human skin): 0.1053 mg/cm^2-hr; Conductivity ([1]; donor solution for passive permeation, donor pH 8): 4.73 mS/cm; Nicotine permeation, iontophoresis versus passive delivery ([2]; both conditions evaluated (pH 5.5 and pH 8 buffers), FIGS. 1 and 2): Iontophoresis enhanced nicotine permeation compared to passive nicotine delivery
CN1CCCC1c1cccnc1.O=C(O)C(O)C(O)C(=O)O (centres unmarked) [Bitartrate, nicotine bitartrate]	16.3	10	0.2073	Conductivity of donor solution ([1]; in 50 mM HEPES buffer, pH 5.5): 16300 μmhos/cm; Conductivity of donor solution ([1]; in 500 mM citrate buffer): 66400 μmhos/cm; Iontophoretic flux of nicotine versus passive delivery of nicotine base [2]: less than the flux from the passive delivery of nicotine base at pH 8; Flux of nicotine after termination of current [2]: decreased sharply; Flux of nicotine, 50 mM HEPES buffer versus 500 mM citrate buffer ([2]; iontophoresis, 50 mM HEPES buffer pH 5.5): higher than the nicotine flux from a 500 mM citrate buffer
CN1CCCC1c1cccnc1.O=C(O)CC(O)(CC(=O)O)C(=O)O [Citrate, nicotine citrate]	13.3	9	0.332	Flux of nicotine, iontophoresis of salt versus passive permeation of nicotine base [2]: increased; Lagtime during iontophoresis versus passive permeation of nicotine base [2]: reduced
Br.Br.CN1CCCC1c1cccnc1 (centres unmarked) [HBr]	25.9	63	0.2771	–
CN1CCC[C@H]1c1cccnc1 [HCl, nicotinium dihydrochloride]	15.4	22	0.2236	Conductivity of donor solution ([1]; in 50 mM HEPES buffer, pH 5.5): 15400 μmhos/cm; Flux of nicotine after termination of current [2]: decreased sharply
CN1CCCC1c1cccnc1.O=C(O)/C=C\C(=O)O (centres unmarked) [Maleate, nicotine maleate]	9.31	4	0.2867	Flux of nicotine, iontophoresis of salt versus passive permeation of nicotine base [2]: increased; Lagtime during iontophoresis versus passive permeation of nicotine base [2]: reduced
CN1CCCC1c1cccnc1.O=S(=O)(O)O.O=S(=O)(O)O (centres unmarked) [SO4]	20	46	0.2554	–
nicotine hemisulfate	–	–	–	Iontophoretic flux of nicotine versus passive delivery of nicotine base [2]: less than the flux from the passive delivery of nicotine base at pH 8
